Test results from the NIST ThermoML archive (doi:10.1016/j.jct.2009.05.009).

Test: xn = mol fraction of the nth substance listed
Details: 101.3 kPa, Liquid, Vibrating tube method

CCOS(=O)(=O)[O-].CCn1cc[n+](C)c1 [1-ethyl-3-methylimidazolium ethyl sulfate] + O
Details | mass density [kg/m3]
293.15 K, x2 = 0 | 1242.4
293.15 K, x2 = 0.0514 | 1241.4
293.15 K, x2 = 0.13 | 1239.8
293.15 K, x2 = 0.1783 | 1238.8
293.15 K, x2 = 0.2168 | 1237.8
293.15 K, x2 = 0.2642 | 1236.4
293.15 K, x2 = 0.3054 | 1235
293.15 K, x2 = 0.3568 | 1233
293.15 K, x2 = 0.4008 | 1231.2
293.15 K, x2 = 0.4613 | 1228.1
293.15 K, x2 = 0.5002 | 1225.9
293.15 K, x2 = 0.5584 | 1221.8
293.15 K, x2 = 0.6124 | 1217.1
293.15 K, x2 = 0.6698 | 1210.7
293.15 K, x2 = 0.7125 | 1204.3
293.15 K, x2 = 0.7635 | 1194.2
293.15 K, x2 = 0.8006 | 1184.2
293.15 K, x2 = 0.8497 | 1165.4
293.15 K, x2 = 0.8963 | 1139.3
298.15 K, x2 = 0 | 1239.4
298.15 K, x2 = 0.0514 | 1238.3
298.15 K, x2 = 0.13 | 1236.8
298.15 K, x2 = 0.1783 | 1235.7
298.15 K, x2 = 0.2168 | 1234.7
298.15 K, x2 = 0.2642 | 1233.3
298.15 K, x2 = 0.3054 | 1232
298.15 K, x2 = 0.3568 | 1230
298.15 K, x2 = 0.4008 | 1228
298.15 K, x2 = 0.4613 | 1225.2
298.15 K, x2 = 0.5002 | 1222.9
298.15 K, x2 = 0.5584 | 1218.8
298.15 K, x2 = 0.6124 | 1213.9
298.15 K, x2 = 0.6698 | 1207.4
298.15 K, x2 = 0.7125 | 1200.8
298.15 K, x2 = 0.7635 | 1190.4
298.15 K, x2 = 0.8006 | 1180.5
298.15 K, x2 = 0.8497 | 1162.1
298.15 K, x2 = 0.8963 | 1135.6
303.15 K, x2 = 0 | 1236.3
303.15 K, x2 = 0.0514 | 1235.2
303.15 K, x2 = 0.13 | 1233.6
303.15 K, x2 = 0.1783 | 1232.6
303.15 K, x2 = 0.2168 | 1231.5
303.15 K, x2 = 0.2642 | 1230.2
303.15 K, x2 = 0.3054 | 1228.8
303.15 K, x2 = 0.3568 | 1226.9
303.15 K, x2 = 0.4008 | 1225
303.15 K, x2 = 0.4613 | 1222
303.15 K, x2 = 0.5002 | 1219.7
303.15 K, x2 = 0.5584 | 1215.6
303.15 K, x2 = 0.6124 | 1210.8
303.15 K, x2 = 0.6698 | 1204.1
303.15 K, x2 = 0.7125 | 1197.6
303.15 K, x2 = 0.7635 | 1187.1
303.15 K, x2 = 0.8006 | 1177.2
303.15 K, x2 = 0.8497 | 1158.8
303.15 K, x2 = 0.8963 | 1132.8
308.15 K, x2 = 0 | 1233.3
308.15 K, x2 = 0.0514 | 1232.2
308.15 K, x2 = 0.13 | 1230.6
308.15 K, x2 = 0.1783 | 1229.5
308.15 K, x2 = 0.2168 | 1228.5
308.15 K, x2 = 0.2642 | 1227.1
308.15 K, x2 = 0.3054 | 1225.8
308.15 K, x2 = 0.3568 | 1223.9
308.15 K, x2 = 0.4008 | 1221.9
308.15 K, x2 = 0.4613 | 1218.9
308.15 K, x2 = 0.5002 | 1216.6
308.15 K, x2 = 0.5584 | 1212.4
308.15 K, x2 = 0.6124 | 1207.6
308.15 K, x2 = 0.6698 | 1200.9
308.15 K, x2 = 0.7125 | 1194.3
308.15 K, x2 = 0.7635 | 1184
308.15 K, x2 = 0.8006 | 1173.6
308.15 K, x2 = 0.8497 | 1155.5
308.15 K, x2 = 0.8963 | 1129
313.15 K, x2 = 0 | 1230.2
313.15 K, x2 = 0.0514 | 1229.1
313.15 K, x2 = 0.13 | 1227.4
313.15 K, x2 = 0.1783 | 1226.3
313.15 K, x2 = 0.2168 | 1225.4
313.15 K, x2 = 0.2642 | 1223.9
313.15 K, x2 = 0.3054 | 1222.6
313.15 K, x2 = 0.3568 | 1220.7
313.15 K, x2 = 0.4008 | 1218.7
313.15 K, x2 = 0.4613 | 1215.6
313.15 K, x2 = 0.5002 | 1213.4
313.15 K, x2 = 0.5584 | 1209.2
313.15 K, x2 = 0.6124 | 1204.4
313.15 K, x2 = 0.6698 | 1197.6
313.15 K, x2 = 0.7125 | 1190.9
313.15 K, x2 = 0.7635 | 1180.6
313.15 K, x2 = 0.8006 | 1170.3
313.15 K, x2 = 0.8497 | 1152.3
313.15 K, x2 = 0.8963 | 1126
318.15 K, x2 = 0 | 1227.2
318.15 K, x2 = 0.0514 | 1226.1
318.15 K, x2 = 0.13 | 1224.4
318.15 K, x2 = 0.1783 | 1223.3
318.15 K, x2 = 0.2168 | 1222.3
318.15 K, x2 = 0.2642 | 1220.8
318.15 K, x2 = 0.3054 | 1219.5
318.15 K, x2 = 0.3568 | 1217.6
318.15 K, x2 = 0.4008 | 1215.6
318.15 K, x2 = 0.4613 | 1212.4
318.15 K, x2 = 0.5002 | 1210.1
318.15 K, x2 = 0.5584 | 1206
318.15 K, x2 = 0.6124 | 1201.1
318.15 K, x2 = 0.6698 | 1194.3
318.15 K, x2 = 0.7125 | 1187.6
318.15 K, x2 = 0.7635 | 1177.2
318.15 K, x2 = 0.8006 | 1167
318.15 K, x2 = 0.8497 | 1148.9
318.15 K, x2 = 0.8963 | 1123
323.15 K, x2 = 0 | 1224.1
323.15 K, x2 = 0.0514 | 1223
323.15 K, x2 = 0.13 | 1221.3
323.15 K, x2 = 0.1783 | 1220.1
323.15 K, x2 = 0.2168 | 1219.1
323.15 K, x2 = 0.2642 | 1217.6
323.15 K, x2 = 0.3054 | 1216.3
323.15 K, x2 = 0.3568 | 1214.4
323.15 K, x2 = 0.4008 | 1212.4
323.15 K, x2 = 0.4613 | 1209.3
323.15 K, x2 = 0.5002 | 1206.9
323.15 K, x2 = 0.5584 | 1202.8
323.15 K, x2 = 0.6124 | 1197.8
323.15 K, x2 = 0.6698 | 1191
323.15 K, x2 = 0.7125 | 1184.3
323.15 K, x2 = 0.7635 | 1173.7
323.15 K, x2 = 0.8006 | 1163.5
323.15 K, x2 = 0.8497 | 1145.2
323.15 K, x2 = 0.8963 | 1119.6
328.15 K, x2 = 0 | 1221.1
328.15 K, x2 = 0.0514 | 1220
328.15 K, x2 = 0.13 | 1218.2
328.15 K, x2 = 0.1783 | 1216.9
328.15 K, x2 = 0.2168 | 1216
328.15 K, x2 = 0.2642 | 1214.6
328.15 K, x2 = 0.3054 | 1213.2
328.15 K, x2 = 0.3568 | 1211.2
328.15 K, x2 = 0.4008 | 1209.3
328.15 K, x2 = 0.4613 | 1206.1
328.15 K, x2 = 0.5002 | 1203.8
328.15 K, x2 = 0.5584 | 1199.6
328.15 K, x2 = 0.6124 | 1194.6
328.15 K, x2 = 0.6698 | 1187.7
328.15 K, x2 = 0.7125 | 1181
328.15 K, x2 = 0.7635 | 1170.2
328.15 K, x2 = 0.8006 | 1160
328.15 K, x2 = 0.8497 | 1141.6
328.15 K, x2 = 0.8963 | 1116.4
333.15 K, x2 = 0 | 1218.1
333.15 K, x2 = 0.0514 | 1216.9
333.15 K, x2 = 0.13 | 1215.2
333.15 K, x2 = 0.1783 | 1213.9
333.15 K, x2 = 0.2168 | 1212.9
333.15 K, x2 = 0.2642 | 1211.5
333.15 K, x2 = 0.3054 | 1210.1
333.15 K, x2 = 0.3568 | 1208.2
333.15 K, x2 = 0.4008 | 1206.2
333.15 K, x2 = 0.4613 | 1203.1
333.15 K, x2 = 0.5002 | 1200.7
333.15 K, x2 = 0.5584 | 1196.4
333.15 K, x2 = 0.6124 | 1191.4
333.15 K, x2 = 0.6698 | 1184.3
333.15 K, x2 = 0.7125 | 1177.5
333.15 K, x2 = 0.7635 | 1166.8
333.15 K, x2 = 0.8006 | 1156.6
333.15 K, x2 = 0.8497 | 1138.3
333.15 K, x2 = 0.8963 | 1112.9
338.15 K, x2 = 0 | 1215.1
338.15 K, x2 = 0.0514 | 1213.8
338.15 K, x2 = 0.13 | 1212.1
338.15 K, x2 = 0.1783 | 1210.9
338.15 K, x2 = 0.2168 | 1209.9
338.15 K, x2 = 0.2642 | 1208.4
338.15 K, x2 = 0.3054 | 1207
338.15 K, x2 = 0.3568 | 1205.1
338.15 K, x2 = 0.4008 | 1203.1
338.15 K, x2 = 0.4613 | 1200
338.15 K, x2 = 0.5002 | 1197.6
338.15 K, x2 = 0.5584 | 1193.2
338.15 K, x2 = 0.6124 | 1188.1
338.15 K, x2 = 0.6698 | 1180.9
338.15 K, x2 = 0.7125 | 1173.9
338.15 K, x2 = 0.7635 | 1163.5
338.15 K, x2 = 0.8006 | 1153.2
338.15 K, x2 = 0.8497 | 1134.9
338.15 K, x2 = 0.8963 | 1109.3
343.15 K, x2 = 0 | 1212
343.15 K, x2 = 0.0514 | 1210.7
343.15 K, x2 = 0.13 | 1208.9
343.15 K, x2 = 0.1783 | 1207.8
343.15 K, x2 = 0.2168 | 1206.7
343.15 K, x2 = 0.2642 | 1205.3
343.15 K, x2 = 0.3054 | 1203.9
343.15 K, x2 = 0.3568 | 1201.9
343.15 K, x2 = 0.4008 | 1200
343.15 K, x2 = 0.4613 | 1196.8
343.15 K, x2 = 0.5002 | 1194.3
343.15 K, x2 = 0.5584 | 1189.9
343.15 K, x2 = 0.6124 | 1184.7
343.15 K, x2 = 0.6698 | 1177.4
343.15 K, x2 = 0.7125 | 1170.4
343.15 K, x2 = 0.7635 | 1159.9
343.15 K, x2 = 0.8006 | 1149.5
343.15 K, x2 = 0.8497 | 1131.3
343.15 K, x2 = 0.8963 | 1106
